Data from patent publication US12060356B2, “7 (methylamino)pyrazolo[1,5-a]pyrimidine-3-carboxamide derivatives” (Eli Lilly and Company, priority 2018, dated 2024).

Assays:
[1] = system: IL-23 signaling (STAT3 phosphorylation) in Kit225 cells; experiment: IL23 pSTAT3 AlphaLISA Assay; assay type: cell-based; conditions: 1 hour preincubation, IL23 25 ng/mL for 30 minutes, GeoMetric mean (SEM, n), read-out: relative IC50
Experimental: IL2-dependent Kit225 cells (University of Texas MD Anderson Cancer Center) expressing endogenous IL23 receptors are stably transduced with the Lenti STAT3 Reporter linked to firefly luciferase (SABiosciences CLS-6028L). These cells are used to monitor TYK2 activity by quantifying gene expression caused by STAT3 phosporylation following induction by IL23 in the presence of IL2 using AlphaLISA technology (TGR Biosciences ALSU-TST3-A50K). The cells are grown in RPMI 1640 (Gibco 22400) supplemented with 10% FBS (Invitrogen 10082), 1× Pen/Strep (Gibco 15140-122), 200 ng/ml Puromycin (Sigma P9620), and fresh 10 ng/ml recombinant human IL2 (R&D Systems 202-IL-50).
For assay preparation, cells are dispensed into Biocoat black poly-d-lysine coated clear bottom 384-well plates (Becton Dickinson Bio-Coat 35-4640) in DMEM (Sigma D5796) at 300,000 cells/well and allowed to incubate overnight at 37° C. Compounds solubilized in DMSO are serially diluted 1:3 to produce a 10-point concentration response curve (final DMSO=0.1%). Cells are pre-incubated with Example 1 for 1 hour at 37° C., then stimulated with IL23 (25 ng/mL final) for 30 minutes. […] The AlphaLISA reaction is performed following the vendor's recommended protocol, and the […] are measured using an Envision plate reader (Perkin Elmer).

[2] = system: IFNα signaling through pSTAT1 in TF1 cells; experiment: Inhibition of IFNα Signaling Through pSTAT1 in TF1 Cells; assay type: cell-based; conditions: Homo sapiens, TF-1, 1 hr preincubation, 10 ng/mL IFNα2 for 20 minutes, p-Stat1 (Tyr701) AlphaLISA, GeoMetric mean (SEM, n)
Experimental: TF1 cells (ATCC, CL-2003) are grown in RPMI 1640 (GIBCO) supplemented with 10% dialyzed FBS, 0.1 mg/mL Ampicillin and 2 ng/mL granulocyte macrophage colony stimulating factor. TF1 cells (100 K per well) are seeded in a 96-well poly-D-lysine coated plates in serum-free DMEM and incubated overnight at 37° C. under 5% CO2. Example 1 is serially diluted in DMSO, added to the cells, and incubated at 37° C. for 1 hr. Cells are then stimulated with 10 ng/mL IFNα2 at 37° C. for 20 minutes. After removing the medium, the cells are lysed in buffer containing Halt protease and phosphatase inhibitor cocktail (Thermo Scientific #78441) at room temperature for 30 minutes. The amount of p-Stat1 (Tyr701) is quantified as light emission at 615 nm using the AlphaLISA SureFire Ultra p-Stat1 (Tyr701) assay kit (Perkin Elmer #ALSU-PST1-A50K) following the vendor's recommended protocol. Percent inhibition at each inhibitor concentration is calculated and fit to the four parameter nonlinear logistic equation using Genedata Screener® to give an IC50 for the compound of Example 1 of 0.007 μM (0.002 μM, n=4) and for the compound of Example 2 of 0.100 μM (0.014 μM, n=4) expressed as GeoMetric means with the standard error of the mean (SEM).

[3] = target: T1, pseudokinase domain (JH2) of human TYK2 (Homo sapiens, UniProt P29597); experiment: TYK2-JH2 Tracer Binding Assay; conditions: His-tagged TYK2-JH2 0.200 nM, Tracer 2.00 nM, TR-FRET, 30 minutes at room temperature
T1 construct: The pseudokinase domain (JH2) of human JAK; made in house
T1 sequence (P29597 589-875 limits assumed): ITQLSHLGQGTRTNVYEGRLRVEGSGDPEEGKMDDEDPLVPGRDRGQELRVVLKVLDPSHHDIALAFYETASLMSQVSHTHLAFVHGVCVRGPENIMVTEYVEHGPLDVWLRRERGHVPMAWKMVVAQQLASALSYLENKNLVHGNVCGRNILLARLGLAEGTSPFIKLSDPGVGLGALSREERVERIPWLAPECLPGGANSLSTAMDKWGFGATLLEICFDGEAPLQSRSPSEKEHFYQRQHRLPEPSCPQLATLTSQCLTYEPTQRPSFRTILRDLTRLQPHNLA
From the text: The pseudokinase domain (JH2) of human JAK (Janus family of cytoplasmic tyrosine kinases) family tyrosine kinase 2 (TYK2) (Genbank NP_003322) with an N-terminal His6 tag is expressed in baculovirus and purified by HisPur Ni-NTA affinity and Superdex 200 size-exclusion chromatography. The compound prepared in Preparation 17, a conjugate of Alexa Fluor 647 dye (Thermo Fisher Scientific) and a suitable TYK2 JH2 binder, is referred to herein as “the Tracer”. A 3 fold, 10 point serial dilution of compound, Example 1 and Example 2, are prepared in 100% DMSO and 50 nL/well transferred to a Proxiplate-384F white plate (PerkinElmer 6008280) using acoustic liquid handling. Control wells used to determine percent inhibition contained 100% DMSO (50 nL) and either assay buffer containing the Tracer (2.00 nM final concentration) (min, low FRET) or diluted TYK2-JH2 enzyme (0.200 nM final concentration) and the Tracer (2.00 nM final concentration) (max, high FRET). […] After 30 minutes, the plate is counted on a PerkinElmer Envision with the following settings: Excitation (340 nm), Tracer Emission (665 nm) and LanthaScreen Eu-anti-His Antibody Emission (615 nm). The ratio of Tracer Emission (665 nm) over LanthaScreen Eu-anti-His Antibody Emission (615 nm) is determined.

| IC50 [1] [nM] | IC50 [2] [nM] | IC50 [3] [nM] | Structure (SMILES) |
| --- | --- | --- | --- |
| 7 | 7 | < 0.254 | CNc1cc(Nc2cccc3c2OCCC3)nc2c(C(=O)N[C@@H]3CCN(C)C3=O)cnn12 [Example 1, 5-(Chroman-8-ylamino)-7-(methylamino)-N-[(3R)-1-methyl-2-oxo-pyrrolidin-3-yl]pyrazolo[1,5-a]pyrimidine-3-carboxamide] |
| 66 | 100 | < 0.254 | CNc1cc(Nc2cccc(C)n2)nc2c(C(=O)N[C@@H]3CCN(C)C3=O)cnn12 [Example 2, 7-(Methylamino)-N-[(3R)-1-methyl-2-oxo-pyrrolidin-3-yl]-5-[(6-methyl-2-pyridyl)amino]pyrazolo[1,5-a]pyrimidine-3-carboxamide] |
